The subject of one assay is H526 cells. Briefly: Cell Counting Kit-8 cytotoxicity, H526. As to conditions: Homo sapiens, NCI-H526, 72 h, read-out: Cytotoxicity IC50, H526.
For the next assay, the system named is H69 cells. Briefly: Cell Counting Kit-8 cytotoxicity and drug combination, H69. As to conditions: Homo sapiens, NCI-H69, 72 h, read-out: Cytotoxicity IC50, H69; 72 hours. The protocol:
(§1) A Mann-Whitney U test was used for comparison between the normal and SCLC samples. FIG. 1B: IHC for PP2A was conducted on TMA tissue sections and images were captured at 4× or 20× using a 3D-Histech PANNORAMIC SCAN whole slide scanner (3D-Histech, Budapest, Hungary). […] TMAs were scored in normal (n=24) and tumor (n=79) cores on a scale from 0 (no staining/no protein expression) to 3+(strong staining/high protein expression). FIG. 1C: Summary bar graph of the average PP2A subunit staining. IHC staining intensity of normal and tumor cores. […] FIG. 1D: In order to compare the expression of PP2A subunits A and C, cell lysates from seven SCLC cell lines and HBEC 3KT (non-malignant cell line) were subjected to western blotting. FIG. 1E: PP2A activity was determined using a serine/threonine phosphatase activity assay (Millipore) after 24 h exposure to cantharidin (10 μM) and LB-100 (5 μM). […] The Cell Counting Kit-8 assay detected cell H524 and H69 cell viability. […] FIGS. 1I-1K: Graphs depict the mean+SEM of percent viability for cells (n=3). Colony formation assays were used to count the ability of H524 (FIGS. 11 and 1J) and H69 (FIGS. 1K and 1L) cells to form colonies. […] Representative images of colonies at 4× are shown under the graph (n=2).*p<0.05; **, p<0.01; *** p<0.001; ****, p<0.0001. Experiments were repeated in triplicate and representative data are shown.
(Formazan colour is commonly taken as a measure of viable cells.)

Another assay concerns H446 cells. Briefly: Cell Counting Kit-8 cytotoxicity, H446. As to conditions: Homo sapiens, NCI-H446, 72 h, read-out: Cytotoxicity IC50, H446.
A further assay deals with H524 and H69 cells. The experiment in a line: Colony formation assay. The assay is classed as cell-based. To be noted: both cell lines; H524/H69: LB-100 2.5/20 μM, carboplatin 4/20 μM, etoposide 3/30 μM. The procedure:
as §1

The next assay deals with H524 cells. The experiment in a line: Cell Counting Kit-8 cytotoxicity and drug combination, H524. As to conditions: Homo sapiens, NCI-H524, 72 h, read-out: Cytotoxicity IC50, H524; 72 hours. The protocol: as §1
In a further assay the test system is H82 cells. The experiment in a line: Cell Counting Kit-8 cytotoxicity, H82. To be noted: Homo sapiens, NCI-H82, 72 h, read-out: Cytotoxicity IC50, H82.
In a further assay the test system is H146 cells. Briefly: Cell Counting Kit-8 cytotoxicity, H146. To be noted: Homo sapiens, NCI-H146, 72 h, read-out: Cytotoxicity IC50, H146.
In another assay the target is T1, PP2A (Homo sapiens, UniProt P67775).
T1 construct: endogenous in cells; host or cells: H524 (human SCLC) cells
The experiment in a line: PP2A immunoprecipitation Ser/Thr phosphatase activity assay in treated H524 cells. As to conditions: cantharidin 10 μM, 24 h. The assay is classed as cell-based. The procedure:
FIGS. 1A-IL depict the effects of LB-100 on PP2A-A expression in SCLC tumors and cells. […] A Mann-Whitney U test was used for comparison between the normal and SCLC samples. FIG. 1B: IHC for PP2A was conducted on TMA tissue sections and images were captured at 4× or 20× using a 3D-Histech PANNORAMIC SCAN whole slide scanner (3D-Histech, Budapest, Hungary). […] TMAs were scored in normal (n=24) and tumor (n=79) cores on a scale from 0 (no staining/no protein expression) to 3+(strong staining/high protein expression). FIG. 1C: Summary bar graph of the average PP2A subunit staining. IHC staining intensity of normal and tumor cores. There was a statistically significant difference between normal and tumor tissue (p<0.001). FIG. 1D: In order to compare the expression of PP2A subunits A and C, cell lysates from seven SCLC cell lines and HBEC 3KT (non-malignant cell line) were subjected to western blotting. FIG. 1E: PP2A activity was determined using a serine/threonine phosphatase activity assay (Millipore) after 24 h exposure to cantharidin (10 μM) and LB-100 (5 μM). […] LB-100 alone or in combination with carboplatin inhibited proliferation and colony formation in SCLC cells. The Cell Counting Kit-8 assay detected cell H524 and H69 cell viability. […] FIGS. 1I-1K: Graphs depict the mean+SEM of percent viability for cells (n=3). […]

The test system of another assay is H446 spheroids. Briefly: H446 spheroids with drugs and T cells, live imaging. To be noted: without T cells, 48 h. It is filed as cell-based. The protocol: FIGS. 7A-7G depict results of T cells infiltration in H446 spheroids in the presence of LB100 and atezolizumab. FIG. 7A: Schematic of the effect of activated T cells on H446 spheroid degradation. At time point 0, single spheroids in 96 well plate were treated with LB-100, atezolizumab and T cells. Beads mimic in vivo T cell activation by two action signals CD3 and CD28. IncuCyte® Live-Cell Analysis System was used for the spheroidal imaging. Right panel presents spheroidal degeneration after 48 h incubation with LB-100, atezolizumab and activated T cells. FIGS. 7B and 7C: Automated image analysis provides metrics (0 h-μm, […]) and spheroid area (yellow-bright field mask). Column bars present mean values of spheroids at 0h. Representative images in bright field mask. […]
Cytotoxic CD8+ cells were isolated from whole blood, buffy coat of healthy donors following the protocol described in the Methods. […] Spheroid survival was monitored for 48 hours and their diameters were measured from phase contrast images. […]
H446 were generated as described in Materials and Methods (Monitoring of spheroid growth and cytotoxicity with the IncuCyte® Live-Cell Analysis System and IncuCyte® Cytotox reagent) following incubation with T cells and drugs. The effect of LB100 and atezolizumab in the presence of T cells was monitored with IncuCyte 3D Multi-Tumor Spheroid assay.

T1 sequence (P67775 whole entry): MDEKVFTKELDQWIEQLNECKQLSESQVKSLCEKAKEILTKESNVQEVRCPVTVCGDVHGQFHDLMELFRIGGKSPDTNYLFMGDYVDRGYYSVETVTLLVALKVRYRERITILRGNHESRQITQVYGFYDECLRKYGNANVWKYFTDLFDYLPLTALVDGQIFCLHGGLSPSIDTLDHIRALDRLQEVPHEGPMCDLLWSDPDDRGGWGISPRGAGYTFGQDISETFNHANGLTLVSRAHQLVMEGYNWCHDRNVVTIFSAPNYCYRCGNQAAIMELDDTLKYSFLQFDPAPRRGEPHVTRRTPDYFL
T1 sequence (P30153 whole entry partner): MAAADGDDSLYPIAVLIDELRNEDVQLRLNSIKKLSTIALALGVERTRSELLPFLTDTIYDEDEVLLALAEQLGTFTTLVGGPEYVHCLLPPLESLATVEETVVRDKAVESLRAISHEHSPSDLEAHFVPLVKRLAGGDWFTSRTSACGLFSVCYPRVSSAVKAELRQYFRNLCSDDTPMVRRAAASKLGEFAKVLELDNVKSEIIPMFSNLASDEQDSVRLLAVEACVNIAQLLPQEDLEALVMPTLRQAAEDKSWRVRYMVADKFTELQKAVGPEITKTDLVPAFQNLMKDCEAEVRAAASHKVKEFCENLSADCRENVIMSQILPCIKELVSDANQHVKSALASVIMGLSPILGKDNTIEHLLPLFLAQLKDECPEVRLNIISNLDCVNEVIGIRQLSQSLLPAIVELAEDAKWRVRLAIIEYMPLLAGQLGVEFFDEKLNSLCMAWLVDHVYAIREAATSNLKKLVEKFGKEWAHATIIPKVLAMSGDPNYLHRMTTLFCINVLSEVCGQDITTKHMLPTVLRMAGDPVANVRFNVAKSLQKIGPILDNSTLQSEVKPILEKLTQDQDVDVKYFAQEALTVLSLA
Excerpt for H146 cells: (§2) To determine specific cytotoxicity, we used Cell Counting Kit-8 (Dojindo Molecular Technologies, Rockville, Md.) as previously described (50).
Excerpt for H446 cells: as §2
Excerpt for H526 cells: as §2
Excerpt for H82 cells: as §2

For `COc1cc([C@@H]2c3cc4c(cc3[C@@H](O[C@@H]3O[C@@H]5CO[C@@H](C)O[C@H]5[C@H](O)[C@H]3O)[C@H]3COC(=O)[C@H]23)OCO4)cc(OC)c1O` [Etoposide], the IC50 (commonly the concentration that inhibits the measured activity by half) turned out to be 2.8 µM in the assay with H526 cells; 30 µM with H69 cells; 3 µM in the assay on H446 cells; 3 µM with H524 cells; 22.6 µM with H82 cells; 31.2 µM in the assay with H146 cells. For the same compound, in the assay on H524 and H69 cells, the colony formation entry is reported as “significantly reduced colony formation”.
Consider `C[C@@]12C(=O)OC(=O)[C@]1(C)[C@H]1CC[C@@H]2O1` [cantharidin, reference compound], for which the “PP2A activity reduced by” value on PP2A is reported as roughly 90%.
In the case of “atezolizumab: humanized immunoglobulin (Ig) G1 monoclonal antibody that targets PD-L1 [reference compound]”, in the assay with H446 spheroids, the “effect on spheroids (degeneration), drug alone” value was “no effect”.

The values are drawn from patent US20230065158A1, “OXABICYCLOHEPTANES FOR TREATMENT OF SMALL CELL LUNG CANCER” (Lixte Biotechnology, Inc., priority 2021, published 2023).
